The results in this text go back to PubChem BioAssay AID1996.

Converted amounts (≈) assume the structure as drawn. Where only a bound is given, the exact number is not on record here.

The conditions of the data set: buffer; pH 7.4; 200.0 µM.
As for `COCc1cc(C)nc(SCC(=O)NCC2CCCO2)c1C#N` (centres undefined), the kinetic solubility (commonly the concentration staying in solution when a stock, usually in DMSO, is diluted into the medium) was above 50.3 µg/mL.

For `Cc1cccc(CCNCc2cc3ccc(C)cc3[nH]c2=O)c1`, the kinetic solubility stood at 45.4 µg/mL (≈ 148 µM).

Take `O/N=C/c1ccn(-c2ccc(Br)cc2)c1`: the solubility (kinetic) worked out at 2.6 µg/mL (≈ 9.81 µM).

`CC1CC(C)CN(C(=O)COC(=O)c2ccc([N+](=O)[O-])o2)C1` (centres undefined) registered a kinetic solubility above 46.5 µg/mL.

Molecule `CCN(c1ccccc1)S(=O)(=O)c1cc(NC(=O)C2CC2)ccc1Cl` showed a solubility (kinetic) of 26.2 µg/mL (≈ 69.2 µM).

`O=C(NCc1ccc2c(c1)OCO2)c1ccc(Br)cc1` showed a solubility (kinetic) of 3.1 µg/mL (≈ 9.28 µM).

Molecule `CCOC(=O)N1CCN(C(=O)c2ccc(S(=O)(=O)Nc3ccc(C)cc3)cc2)CC1` gave a kinetic solubility above 64.7 µg/mL.

`CCOc1cccc(/C=C/c2ccc3cccc(O)c3n2)c1OC`: the kinetic solubility was below 0.7 µg/mL.

Molecule `Cc1c2ccccc2nc2ccccc12` returned a solubility (kinetic) of 7.9 µg/mL (≈ 40.9 µM).

Consider `Cc1nc(SCC(=O)NCC2CCCO2)c2c(C)c(C)sc2n1` (centres undefined), for which the kinetic solubility was above 52.7 µg/mL.

`CC1CCCN(C(=O)CN2C(=O)NC(C)(c3ccc4ccccc4c3)C2=O)C1` (centres undefined) displayed a solubility (kinetic) above 56.9 µg/mL.

Turning to `COc1ccccc1NS(=O)(=O)c1ccc(C)c(C(=O)N2CCN(c3ccc(O)cc3)CC2)c1.Cl`, the solubility (kinetic) is above 77.7 µg/mL.

Take `CCOCc1c(C(=O)NC2CCCCCC2)oc2ccccc12`: the solubility (kinetic) stood at 0.9 µg/mL (≈ 2.85 µM).

On to `COc1ccc2[nH]cc(C(O)CN3CCN(c4ccccc4F)CC3)c2c1` (centres undefined), for which the kinetic solubility is above 55.4 µg/mL.

Molecule `Cc1cccc(N2CCN(C(=O)c3ccc4nccnc4c3)CC2C)c1` (centres undefined) returned a kinetic solubility above 52 µg/mL.

`Cc1cccc(Nc2ccc3nonc3c2[N+](=O)[O-])c1C`: the solubility (kinetic) was below 0.2 µg/mL.

For the molecule `O=C(NCC1CC1)Nc1cccc(C(F)(F)F)c1`, the kinetic solubility was 29.3 µg/mL (≈ 113 µM).

With `CN1CCc2c(sc(N)c2C(=O)c2ccc(Cl)cc2)C1`, the kinetic solubility was 41.5 µg/mL (≈ 135 µM). This solubility kinetic and that of the molecule before are within 1.5-fold of each other.

In turn, `O=C(Cc1ccc(Br)cc1)Nc1ccccc1N1CCCC1` displayed a kinetic solubility of 2.6 µg/mL (≈ 7.24 µM).

Molecule `CC(C)CCn1c2ccccc2c2cc(CC(N)=O)ccc21` gave a solubility (kinetic) of 0.4 µg/mL (≈ 1.36 µM).

`Cc1cc(C)nc(NC(=O)c2c(Cl)cccc2Cl)n1` had a solubility (kinetic) above 44.4 µg/mL.

Turning to `CCCCn1c(N)c(N(C)C(=O)c2c(C)nn(-c3ccccc3)c2C)c(=O)[nH]c1=O`, the solubility (kinetic) was above 61.6 µg/mL.

On to `COc1ccc(CNC(=S)Nc2ccccc2F)cc1`, for which the solubility (kinetic) worked out at 34 µg/mL (≈ 117 µM).

`Cc1cc(C)c2c(CN3CCC(C)CC3)cc(=O)oc2c1C` returned a solubility (kinetic) of 1.1 µg/mL (≈ 3.67 µM). This solubility kinetic lies about 31-fold lower than the previous one.

`CC(C)(C)c1ccc(C(=O)n2cnc3ccccc32)cc1` gave a solubility (kinetic) of 34.1 µg/mL (≈ 123 µM).

In the case of `CCOC(=O)CC(NC(=O)c1ccccc1F)c1ccc(C)cc1` (centres undefined), the kinetic solubility was 34.5 µg/mL (≈ 105 µM). This solubility kinetic and that of the molecule before are within 1.5-fold of each other.

The molecule `CCN(CC(=O)NCc1ccc(F)cc1)C(=O)c1cc2ccccc2o1` came in with a solubility (kinetic) of 47.2 µg/mL (≈ 133 µM).

Molecule `O=C(NCCN1CCOCC1)c1cc2ccccc2oc1=O` registered a kinetic solubility above 45.3 µg/mL.

Molecule `O=C(c1ccc([N+](=O)[O-])s1)N1CCc2ccccc2C1` gave a kinetic solubility of 2.8 µg/mL (≈ 9.71 µM).

Molecule `Clc1ccc2nc(-c3ccc(Cl)nc3)[nH]c2c1` showed a kinetic solubility of 13.5 µg/mL (≈ 51.1 µM).

For the molecule `CN(CCOc1ccccc1)CC(=O)Nc1cc([N+](=O)[O-])ccc1Cl`, the solubility (kinetic) was 13.7 µg/mL (≈ 37.7 µM).

The molecule `O=C(Nc1ccccc1Cl)c1ccc2ccccc2c1` returned a kinetic solubility below 0.6 µg/mL.

Regarding `O=C1c2ccccc2NC(c2ccc(O)cc2)N1c1ccccc1` (centres undefined), the kinetic solubility came out at 9.5 µg/mL (≈ 30 µM).

The molecule `O=C(Nc1sc2c(c1C(=O)O)CCCC2)c1ccccc1Cl` gave a kinetic solubility above 50.4 µg/mL.

The molecule `COc1ccc(NC(=O)c2ccco2)c2ccccc12` registered a kinetic solubility above 40.1 µg/mL.

`CC(Sc1ncccn1)C(=O)NNC(=O)c1cccc(Cl)c1` (centres undefined) gave a kinetic solubility above 50.5 µg/mL.

`CCOc1ccc(Br)cc1C(=S)N1CCCC1` came in with a solubility (kinetic) of 6.2 µg/mL (≈ 19.7 µM).

`C=CCC(Nc1ccccc1)c1cccc(OC)c1OC` (centres undefined): the solubility (kinetic) is 10.8 µg/mL (≈ 38.1 µM). This solubility kinetic lies about 1.7-fold higher than the previous one.

The molecule `O=C(COC(=O)CNC(=O)C1CCCCC1)Nc1ccccc1OC(F)F` returned a kinetic solubility above 57.7 µg/mL.

`CN1CCc2c(sc(NC(=O)Cc3ccc(F)cc3)c2C(N)=O)C1.Cl` came in with a solubility (kinetic) of 52.6 µg/mL.

The molecule `CCOC(=O)c1[nH]c(=O)[nH]c1CNc1ccccc1C#N` registered a kinetic solubility above 42.9 µg/mL.

`CCOc1ccc(NC(=O)N(c2ccccc2)c2ccccc2)cc1`: the kinetic solubility came out at 2.5 µg/mL (≈ 7.52 µM).

`O=C(Nc1cccc2ncccc12)c1cccc(Br)c1` registered a kinetic solubility of 16.2 µg/mL (≈ 49.5 µM). Against the preceding molecule, the solubility kinetic is about 6.5-fold higher.

`O=C(NC(=S)Nc1ccc(O)cc1)c1cncc(Br)c1`: the solubility (kinetic) was above 52.8 µg/mL.

The molecule `CC(C(=O)Nc1ccc(F)c(F)c1F)N(C)Cc1cccs1` (centres undefined) gave a kinetic solubility of 13.6 µg/mL (≈ 41.4 µM).

With `O=C(O)c1cc(N2C(=O)CCC2=O)ccc1Cl`, the solubility (kinetic) is above 38 µg/mL.

Take `O=C(Nc1cc2c(cc1Br)OCCO2)c1cccnc1`: the solubility (kinetic) was above 50.3 µg/mL.

Turning to `CCOc1ccc(N(C(C)C(=O)N2CCCC2)S(C)(=O)=O)cc1` (centres undefined), the solubility (kinetic) is above 51.1 µg/mL.

The molecule `Cc1cc(C)nc(SCC(=O)OCC(=O)Nc2ccccc2)n1` had a kinetic solubility above 49.7 µg/mL.

Molecule `O=C(NNC(=O)c1cc([N+](=O)[O-])ccc1Cl)c1cccnc1` came in with a kinetic solubility above 48.1 µg/mL.

The molecule `O=C(COC(=O)c1cccc(F)c1)Nc1ccc(Cl)cn1` came in with a solubility (kinetic) of 6.2 µg/mL (≈ 20.1 µM).

`COc1ccc(C2(C#N)CCC(=O)N2c2ccccc2)cc1` (centres undefined): the kinetic solubility came out at 40.9 µg/mL (≈ 140 µM).

Take `COc1ccccc1NC(=O)N1C[C@@H]2C[C@@H](C1)c1cccc(=O)n1C2`: the solubility (kinetic) was above 50.9 µg/mL.

For the molecule `CCNC(=O)Nc1cc(OC)c(OC)cc1C(=O)O`, the kinetic solubility is above 40.2 µg/mL.

In turn, `Cc1cccc(C)c1OCC(=O)Nc1ccc2c(c1)C(=O)NC2=O` yielded a solubility (kinetic) of 1.2 µg/mL (≈ 3.7 µM).

`O=C(CCCc1ccccc1)NCc1ccc(Cl)cc1` registered a solubility (kinetic) of 27.7 µg/mL (≈ 96.3 µM).

For the molecule `O=C(CN1CCN(C(=O)c2ccccc2)CC1)NC(=O)NCCC1=CCCCC1`, the solubility (kinetic) is above 59.8 µg/mL.

Molecule `Cc1ccc2[nH]cc(CCNC(=O)C3CCCO3)c2c1` (centres undefined) showed a solubility (kinetic) above 40.9 µg/mL.

The molecule `CNC(=O)c1ccc(NC(=O)Nc2ccccc2)cc1` gave a kinetic solubility of 6.6 µg/mL (≈ 24.5 µM).

`Cc1ccc(NC(=O)c2ccc(C(=O)c3ccccc3)cc2)nc1` showed a solubility (kinetic) of 5.1 µg/mL (≈ 16.1 µM).

`O=C1SCCC1NC(=O)C(c1ccccc1)c1ccccc1` (centres undefined) showed a solubility (kinetic) above 46.7 µg/mL.

On to `Cc1[nH]c(=O)[nH]c(=O)c1/C=C/C(=O)O`, for which the solubility (kinetic) was above 29.4 µg/mL.

In turn, `CN1C2=NCCN2C(=O)c2cc(Cl)ccc21` displayed a solubility (kinetic) of 30.9 µg/mL (≈ 131 µM).

Take `COc1ccc(C(C)=O)cc1COC(=O)[C@H](Cc1ccccc1)NC(=O)c1ccco1`: the solubility (kinetic) came to 8 µg/mL (≈ 19 µM). This solubility kinetic is about 3.9-fold lower than that of the molecule before.

Consider `O=C(Nc1ccc(F)cc1)Nc1ccc2c(c1)CCC2`, for which the solubility (kinetic) is below 0.3 µg/mL.

`Cc1nc2c(c(=O)c3ccccc3n2C)c(=O)n1-c1ccc(F)cc1` displayed a solubility (kinetic) of 13.7 µg/mL (≈ 40.9 µM).

The molecule `CC(=O)C1=C(O)CC(C)(C)CC1=NCc1nc2ccccc2[nH]1` yielded a solubility (kinetic) above 46.7 µg/mL.

`CCOc1ccccc1N1CCN(C(=O)c2cccs2)CC1` returned a solubility (kinetic) of 45.7 µg/mL (≈ 144 µM).

With `O=C1c2ccccc2C(=O)N1CCOc1ccccc1Br`, the solubility (kinetic) was 4 µg/mL (≈ 11.6 µM).

Turning to `COc1ccc(-c2cc(C(F)(F)F)c(C#N)c(=O)[nH]2)cc1`, the solubility (kinetic) came to 21.2 µg/mL (≈ 72.1 µM).

Consider `O=C(CCl)Nc1cccc(Oc2cnccn2)c1`, for which the kinetic solubility came to 39.4 µg/mL (≈ 149 µM).

Take `COc1ccc(S(=O)(=O)N2CCNCC2)cc1`: the kinetic solubility amounted to 31.1 µg/mL (≈ 121 µM).

`COc1cc2c(cc1OC)C(C)N(C(=O)Nc1ccccc1)CC2` (centres undefined) came in with a kinetic solubility of 39 µg/mL (≈ 119 µM).

On to `CCCCNC(=O)C1CCCN(S(=O)(=O)CC)C1` (centres undefined), for which the kinetic solubility was above 41.5 µg/mL.
